Tests used:
blood sugar level = assay: Test D: measurement of the hypoglycaemic effect; type: in vivo, male Swiss mice; details: mice, orally, dose of 60 mg.kg, one hour
Description: Test D: measurement of the hypoglycaemic effect: male Swiss mice weighing 26-28 g are treated orally with the test product. One hour later, the animals are sacrificed by exsanguination, and the blood sugar level is measured on an aliquot fraction of plasma by an enzymatic method employing glucose oxidase.

blood cholesterol level = assay: Test B: measurement of the hypocholesterolaemic effect in rodents; type: in vivo, male Wistar rats; details: Rattus norvegicus, po; rats, diet enriched with 2.5% of cholesterol for 8 days; orally, 24 hours and 4 hours before sacrifice; read-out: 25% effective dose (ED25), quantity of compound which lowers the blood cholesterol level by 25%
Description: Test B: measurement of the hypocholesterolaemic effect in rodents: male Wistar rats weighing 200-220 g are subjected to a diet enriched with 2.5% of cholesterol for 8 days; on the last two days, they are treated orally with the test product 24 hours and 4 hours before being sacrificed by exsanguination: the blood cholesterol level is evaluated on an aliquot fraction of serum by an automated enzymatic method. The results are expressed in the form of a 25% effective dose (ED25) in mg per kg of body weight, representing the quantity of compound which lowers the blood cholesterol level by 25%.

[1] = target: T1, aortic ACAT (acylcoenzyme A:cholesterol acyltransferase) (Oryctolagus cuniculus, UniProt A0A5F9CPP4); assay: Test A: measurement of the inhibition of aortic ACAT in vitro in rabbits; type: biochemical, male New Zealand rabbits; details: microsomal fraction of aorta of rabbits on a diet enriched with 1.25% of cholesterol; [^14 C]oleylcoenzyme A; read-out: 50% inhibitory concentration (IC50), concentration of compound which inhibits the ACAT activity by 50%
T1 construct: the aorta is removed, dissected and homogenised in order to prepare the microsomal fraction of it by ultracentrifugation; from tissue; host or cells: aorta microsomes of cholesterol-fed male New Zealand rabbits
T1 sequence (A0A5F9CPP4 1-555): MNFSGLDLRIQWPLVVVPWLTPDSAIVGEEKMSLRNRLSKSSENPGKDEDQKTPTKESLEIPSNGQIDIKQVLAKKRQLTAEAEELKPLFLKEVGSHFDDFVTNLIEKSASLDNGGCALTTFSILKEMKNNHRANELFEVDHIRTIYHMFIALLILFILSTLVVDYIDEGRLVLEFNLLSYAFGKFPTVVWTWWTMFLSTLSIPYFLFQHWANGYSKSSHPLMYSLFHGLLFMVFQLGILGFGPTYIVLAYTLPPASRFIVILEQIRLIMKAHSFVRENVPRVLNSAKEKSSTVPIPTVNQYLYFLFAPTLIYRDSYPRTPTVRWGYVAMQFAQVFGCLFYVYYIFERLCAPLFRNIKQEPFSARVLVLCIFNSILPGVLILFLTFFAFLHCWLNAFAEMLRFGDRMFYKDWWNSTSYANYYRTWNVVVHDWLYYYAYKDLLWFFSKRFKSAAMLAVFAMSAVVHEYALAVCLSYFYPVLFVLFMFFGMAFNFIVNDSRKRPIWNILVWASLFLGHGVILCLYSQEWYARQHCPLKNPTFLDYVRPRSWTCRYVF
Description: Test A: measurement of the inhibition of aortic ACAT in virro in rabbits: male New Zealand rabbits weighing between 2.2 and 2.5 kg, subjected beforehand for 15 days to a diet enriched with 1.25% of cholesterol, are sacrificed by cervical dislocation; the aorta is removed, dissected and homogenised in order to prepare the microsomal fraction of it by ultracentrifugation; these microsomes are incubated in the presence of [^14 C]oleylcoenzyme A in accordance with the method described by P. J. GILLIES et al., Exp. and Mol. Pathol., 1986, 44, 329-339; the lipids are extracted from the incubate with a methanol/chloroform mixture and the [^14 C]oleylcholesterol is separated by TLC: the latter compound represents a measure of the ACAT activity, and the results were expressed in the form of a 50% inhibitory concentration (IC50), representing the concentration of compound which inhibits the ACAT activity by 50%.

[2] = tested on: intestinal absorption of cholesterol; assay: Test C: measurement of the inhibition of intestinal absorption in rats; type: in vivo, male Wistar rats; details: Rattus norvegicus, po, fasted 24 hours, orally, with Triton WR-1339 I.V., [^3 H]cholesterol orally one hour later, blood three hours later, read-out: 50% effective dose (ED50), quantity of compound which inhibits the intestinal absorption of cholesterol by 50%
Description: Test C: measurement of the inhibition of intestinal absorption in rats; male Wistar rats weighing 230-250 g, fasted for 24 hours, are treated simultaneously with the test product administered orally and with Triton WR-1339 administered I.V.; one hour later, they are again treated orally with [^3 H]cholesterol; three hours later, under ether anaesthesia, 1 ml of blood is withdrawn from the animals' retro-orbital sinus: the blood radioactivity, evaluated on 0.1 ml of serum, represents a measure of the absorption of the [^3 H]cholesterol administered. The results are expressed in the form of a 50% effective dose (ED50) in mg per kg of body weight, representing the quantity of compound which inhibits the intestinal absorption of cholesterol by 50%.

## CC(C)c1cccc(C(C)C)c1NC(=O)NCC1(c2cn(C)c3ccccc23)CCCC1 [compound No. 1, N^1-(2,6-Diisopropylphenyl)-N^2-[1-(1-methyl-3-indolyl)-cyclopentylmethyl]urea]
Blood sugar level
  significant lowering of the blood sugar level: 21%
Blood cholesterol level
  ED25: 0.098 mg/kg
[1]
  IC50: 0.046 µM
[2]
  ED50: 0.176 mg/kg

Reference: patent publication US5219859A, “Indole derivatives, preparation processes and medicinal products containing them” (Lipha, Lyonnaise Industrielle Pharmaceutique, priority 1991, dated 1993)
